Measurements published in patent US20250339405A1, “a-SYNUCLEIN AGGREGATE BINDING AGENT AND IMAGING METHOD” (National Institutes for quantum and Radiological Science …, priority 2019, published 2025).

Assays:
α-synuclein lesions [1] = target: T1, α-synuclein lesions (Mus musculus, UniProt O55042); test: Ex vivo imaging of α-synuclein fibril-injected model mouse brain; format: in vivo
T1 construct: from tissue; host or cells: brain of C57BL/6 mice inoculated in the striatum with recombinant murine α-synuclein fibrils (made in E. coli)
Method: A model mouse at 6 weeks after the injection of the α-synuclein fiber solution was anesthetized with 1.5% (v/v) isoflurane in a manner similar to that described in “(Preparation of α-synuclein fibril-injected mouse model)” above, and C05-05 (1.66 mg/kg) or BF-227 (1.66 mg/kg) was intraperitoneally administered.
The brains were collected and frozen 90 minutes after the administration of C05-05 (or 120 minutes after the administration of BF-227), and frozen sections with the thickness of 20 μm were prepared in a cryostat (HM560). After mounting the sections using a mounting medium (VECTASHIELD H-1000), images of α-synuclein aggregate-enriched areas on the sections were obtained using a fluorescence microscope (DM4000).
Moreover, the same sections were immersed and fixed overnight in a phosphate buffer solution containing 4% paraformaldehyde. The brain after fixation was washed under running water and then treated with an autoclave for the antigen retrieval. Immunohistochemical staining with an anti-phosphorylated α-synuclein monoclonal antibody (pS129, abcam, ab59264) (1:1000) was carried out, and after mounting the sections using a mounting medium (VECTASHIELD H-1000), images of the same areas were obtained using the fluorescence microscope (DM4000). FIG. 7(a) contains images showing the case where C05-05 was administered, and FIG. 7(b) is images showing the case where BF-227 was administered.

[2] = target: T2, lesion composed of the phosphorylated α-synuclein (Mus musculus, UniProt O55042); test: In vitro fluorescence microscope measurement, α-synuclein fibril-injected mouse brain sections; format: binding; settings: 30 μM, 20% ethanol, 30 minutes, room temperature
T2 construct: from tissue; host or cells: brain of C57BL/6 mice inoculated in the striatum with recombinant murine α-synuclein fibrils (made in E. coli)
Method: First, murine α-synuclein was expressed in and extracted from E. coli as a recombinant protein, and incubated in vitro to form an insoluble α-synuclein aggregate.
Note that the α-synuclein aggregate was inoculated into the striatum of the mouse with the following manner. First, hair on the head of 9-week-old C57BL/6 male mouse anesthetized with 1.5% (v/v) isoflurane was removed, and the scalp was disinfected with isodine, followed by application of xylocaine and incision in the scalp to expose the skull. […]
The brain of the α-synuclein fibril-injected mouse was extracted, sectioned, and analyzed by fluorescent staining. […] After mounting the sections using a mounting medium (VECTASHIELD H-1000), images of α-synuclein aggregate-enriched areas on the sections were obtained using a fluorescence microscope (DM4000). […] Immunohistochemical staining with an anti-phosphorylated α-synuclein monoclonal antibody (pS129, abcam, ab59264) (1:1000) was carried out, and after mounting the sections using a mounting medium (VECTASHIELD H-1000), images of the same areas were obtained using the fluorescence microscope (DM4000).

[3] = target: T3, A53T mutant human α-synuclein (Homo sapiens, UniProt P37840, A53T); test: Inhibitory effect on α-synuclein aggregation (seeded, sarkosyl-insoluble fraction, CBB staining); format: biochemical; settings: 37° C., 1 day
T3 construct: made in house; host or cells: E. coli
Method: First, A53T mutant human α-synuclein was expressed in and extracted from E. coli as a recombinant protein, and incubated in vitro to prepare α-synuclein aggregate seeds. To 0.02 μg of the α-synuclein aggregate seeds, C05-05 (in DMSO solution) was added at a final concentration of 20 μM, or 200 μM and stirred. An experiment in which only DMSO was added was conducted as a control experiment. These were suspended with 50 μL of A53T mutant human-synuclein monomer solution at a concentration of 1 mg/ml and then shaken at 37° C. for 1 day. Ten μL of the suspension was mixed with 90 μL of 1% sarkosyl and ultracentrifuged at 100 Krpm for 20 minutes, and a resulting precipitate was subjected to electrophoresis, followed by CBB staining of the gel. Images of the gels were obtained using an imager, and quantification of bands was carried out using analysis software (Image J).

α-synuclein lesions [4] = target: T1, α-synuclein lesions; test: In vivo two-photon laser scanning fluorescence microscopy of α-synuclein fibril-injected model mouse
Method: Note that the α-synuclein aggregate was inoculated into the striatum of the mouse with the following manner. First, hair on the head of 9-week-old C57BL/6 male mouse anesthetized with 1.5% (v/v) isoflurane was removed, and the scalp was disinfected with isodine, followed by application of xylocaine and incision in the scalp to expose the skull. Then, a hole was drilled in the skull at a position of 0.05 mm posterior to the bregma and 2 mm lateral to the midline, and 3 μl of an α-synuclein fiber solution (murine α-synuclein fiber (4 mg/ml) in saline) was injected into a position […] ventral to the brain surface using a glass pipette, and then the scalp was returned and sutured.
A model mouse was anesthetized with 1.5% (v/v) isoflurane 6 weeks after the injection of the α-synuclein fiber solution, and a cranial window was provided according to the Seylaz-Tomita method (Tomita et al. J Cereb Blood Flow Metab 25, 858-67, 2005). The mouse was anesthetized with 1.5% (v/v) isoflurane 2 weeks after the generation of the cranial window, and 50 μl of a solution of DMSO/physiological saline water=1:1 containing 0.05% of C05-05 or PBB3 was administered via the tail vein. The mouse was fixed under a two-photon laser fluorescence microscope 90 minutes after administration of C05-05 or 30 minutes after administration of PBB3, and 100 μl of a saline solution containing 5 mM of Sulforhodamine 101 was administered intraperitoneally, followed by intravital two-photon fluorescence imaging at an excitation wavelength of 900 nm. The detection wavelengths for C05-05 and PBB3 were set at 500 nm to 550 nm, and detection wavelengths for Sulforhodamine 101 were set at 573 nm to 648 nm.

[5] = target: T4, α-synuclein aggregate formed in the brain of the DLB patient (Homo sapiens, UniProt P37840); test: In vitro fluorescence microscope measurement, DLB patient brain sections; format: binding; settings: 30 μM compound, 50% ethanol, 30 minutes, room temperature, amygdala sections
T4 construct: Postfixed fresh frozen sections of the amygdala tissue of the DLB patient; from tissue; host or cells: post-mortem human DLB amygdala, frozen sections
Description: Postmortem human brains were obtained from autopsies carried out with respect to a dementia with Lewy bodies (DLB) and Alzheimer's disease (AD) patients.
A frozen DLB tissue was sliced with a thickness of 20 μm in a cryostat (HM560, Carl Zeiss).
Postfixed fresh frozen sections of the amygdala tissue of the DLB patient and formalin fixed, paraffin embedded sections of a deparaffinized middle frontal gyrus tissue of the AD patient were used. Thirty μM of each of the above compounds and brain sections were incubated in a 50% ethanol solution for 30 minutes at room temperature. The sections were then washed twice, i.e., washed with a 50% ethanol solution for 5 minutes and with ultrapure water for 3 minutes. After mounting the sections using a mounting medium (VECTASHIELD H-1000, Vector Laboratories), images of lesion-enriched areas on the sections were obtained using a fluorescence microscope (DM4000, Leica). Analysis software (Image J) was used to quantify the fluorescence of lesion-enriched and lesion-free (background) areas.

## CNc1ccc(C#C/C=C/c2nc3ccc(OCC(O)CF)cc3s2)cn1 (stereo not shown) [C05-05, (E)-1-fluoro-3-(2-(4-(6-(methylamino)pyridin-3-yl)but-1-en-3-ynyl)benzo[d]thiazol-6-yloxy)propan-2-ol]
α-synuclein lesions [1]; 1.66 mg/kg, model mouse
  entry into the brain (ex vivo imaging): entered the brain
α-synuclein lesions [1]; 1.66 mg/kg, brains collected 90 minutes after C05-05 or 120 minutes after BF-227
  detection of α-synuclein lesions by ex vivo imaging: bound to individual α-synuclein lesions
α-synuclein lesions [1]; ex vivo imaging
  contrast in detecting lesions relative to BF-227: higher contrast than BF-227
[2]
  binding to phosphorylated α-synuclein lesion (co-staining with pS129 antibody): binds to the lesion composed of the phosphorylated α-synuclein
[3]; final concentration 20 μM
  reduction of formation of insoluble α-synuclein aggregate compared with control experiment (DMSO): approximately 20%
[3]; final concentration 200 μM
  reduction of formation of insoluble α-synuclein aggregate compared with control experiment (DMSO): approximately 60%
α-synuclein lesions [4]; intravital two-photon imaging
  contrast in detecting lesions relative to PBB3: higher contrast than PBB3
α-synuclein lesions [4]; tail vein, 50 μl of 0.05% solution, 90 minutes after C05-05 or 30 minutes after PBB3
  detection of α-synuclein lesions by intravital two-photon fluorescence imaging: bound to individual α-synuclein lesions
α-synuclein lesions [4]; tail vein, model mouse
  entry into the brain after intravenous injection: entered the brain of the living body
[5]
  binding to the α-synuclein aggregate formed in the brain of the DLB patient, reactivity relative to PBB3: reactivity equal to or greater than that of PBB3
